# Experimental data published in patent US12559488B2, “Substituted morpholines as ATR kinase inhibitors” (JIANGSU HENGRUI MEDICINE CO., LTD., priority 2019, dated 2026).
# Legend:
# LoVo cells = assay: LoVo cell proliferation assay (intracellular ATP content, CellTiter-Glo); assay type: cell-based; conditions: LoVo human colon cancer cells, 3 days incubation; for IC50: 72 h, read-out: IC50 for LoVo cell proliferation inhibition
# Text: The following method evaluates the inhibitory effect of the compounds disclosed herein on the proliferation of LoVo cells via IC50 by measuring the intracellular ATP content. The experimental methodology is briefly described as follows:
# • 1. LoVo, human colon cancer cells (Cobioer, Nanjing, CBP60032) • 2. Fetal bovine serum (FBS) (Gibco, 10091-148) • 3. F-12K Medium (Gibco, 21127030) • 4. CellTite-Glo reagent (Promega, G7573) • 5. 96-well cell culture plate (Corning, 3903) • 6. Pancreatin (Invitrogen, 25200-072) • 7. Microplate reader (BMG, PHERAstar) • 8. Cell counter (Countstar, Shanghai, IC1000)
# LoVo cells were cultured in an F-12K culture medium containing 10% of FBS, and passaged twice or thrice a week in a passage ratio of 1:3 or 1:5. During passage, cells were digested by pancreatin, transferred to a centrifuge tube, and centrifuged for 3 min at 1200 rpm. The supernatant was discarded, and fresh culture medium was added to resuspend the cells. To a 96-well cell culture plate, 90 μL of the cell suspension was added at a density of 3.88×10^4 cells/mL. To peripheral wells of the 96-well plate, only 100 μL of complete medium was added. The plate was incubated in an incubator for 24 h (37° C., 5% CO2).
# The test samples were diluted to 2 mM in DMSO and serially 3-fold diluted to the 10th concentration. Blank and control wells were set. 5 μL of the serially diluted test compound solutions was added to 95 μL of fresh medium. 10 μL of the medium containing the compound above was added to the plate. The plate was incubated in an incubator for 3 days (37° C., 5% CO2). 50 μL of CellTiter-Glo reagent was added into each well of the 96-well cell culture plate. The plate was let stand for 5-10 min in the dark at room temperature. The chemiluminescence signals were read by a PHERAstar system, and the data were processed by GraphPad software.
# ATR enzyme = target: T1, ATR enzyme (Homo sapiens, UniProt Q13535); assay: Inhibitory effect on ATR enzyme (phospho-p53 HTRF); assay type: biochemical; conditions: for IC50: 1 nM ATR enzyme, 50 nM P53 protein, 7.435 μM ATP, 2 h room temperature, read-out: IC50 for ATR enzyme inhibition; for Maximum inhibition (%) of ATR enzyme: compound serially 3-fold diluted from 1 μM
# T1 construct: purchased Eurofins Pharma Discovery Services 14-953-M
# Text: The following method was used to determine the inhibitory effect of the compounds disclosed herein on ATR enzyme. The experimental methodology is briefly described as follows:
# • 1. ATR enzyme (Eurofins Pharma Discovery Services, 14-953-M) • 2. GST-tag P53 protein (Eurofins Pharma Discovery Services, 14-952-M) • 3. 384-well plate (Thermo Scientific, 267462) • 4. U-shaped bottom 96-well plate (Corning, 3795) • 5. MAb Anti-phospho p53-Eu cryptate (Cisbio, 61P08KAE) • 6. MAb Anti GST-d2 (Cisbio, 61GSTDLF) • 7. ATP solution (Promega, V916B) • 8. EDTA (Thermo Scientific, AM9260G) • 9. HEPES (Gibco, 15630-080) • 10. Microplate reader (BMG, PHERAsta)
# 1 nM ATR enzyme, 50 nM P53 protein, 7.435 μM ATP and small molecule compounds of different concentrations (serially 3-fold diluted from 1 μM to the 11th concentration) were mixed and incubated at room temperature for 2 h. A terminating buffer (12.5 mM HEPES, 250 mM EDTA) was added. The mixture was well mixed before 0.42 ng/well of mAb anti-phospho p53-Eu cryptate and 25 ng/well of mAb anti GST-d2 were added. The mixture was incubated overnight at room temperature, and the fluorescence signals at 620 nm and 665 nm were detected using a PHERAstar system. Data were processed using GraphPad software.
# [1] = Pharmacokinetic study in rats after intragastric administration; assay type: in vivo; conditions: both sexes, Sprague-Dawley (SD), rat, plasma, po, 2 mg/kg; for Vd/F: read-out: Apparent volume of distribution Vz/F; for AUC: read-out: Area under curve AUC; for CL/F: read-out: Clearance CL/F; for half-life: read-out: Half life T1/2 (converted); for Cmax: read-out: Plasma concentration Cmax; for MRT: read-out: Retention time MRT
# Description: The plasma concentration of the compounds of Examples 1, 2 and 3 in rats after intragastric administration were measured by LC/MS/MS. The pharmacokinetic performance in rats of the compounds disclosed herein was studied and their pharmacokinetic profile was evaluated.
# The compounds of Examples 1, 2 and 3.
# 12 healthy adult SD rats (half male and half female; purchased from Vital River) were evenly divided into 3 groups of 4.
# A certain amount of the compound was added to a mixed solvent containing 5% of DMSO, 5% of Tween 80 and 90% of normal saline to obtain a colorless and clear solution.
# SD rats were intragastrically administered with the compounds after fasting overnight, at a dose of 2 mg/kg and a volume of 10.0 mL/kg.
# Rats were intragastrically administered with the compounds of Examples 1, 2 and 3. 0.2 mL of blood was collected from the orbit pre-dose and at 0.25, 0.5, 1.0, 2.0, 4.0, 6.0, 8.0, 11.0 and 24.0 h post-does. The blood samples were transferred to EDTA-K2kk anticoagulation vacutainers, centrifuged at 4° C. and 11000 rpm for 5 min to separate plasma. The plasma samples were stored at −20° C. The mice were fed 2 h after administration.
# The plasma concentration of the compounds in rats after intragastric administration was determined: 25 μL of rat plasma at each time point post-dose was mixed with 50 μL of internal standard and 175 μL of acetonitrile; the mixture was vortexed 5 min, and centrifuged for 10 min at 4000 rpm. 1 μL of supernatant was taken for LC/MS/MS analysis.
# T1 sequence (Q13535 whole entry): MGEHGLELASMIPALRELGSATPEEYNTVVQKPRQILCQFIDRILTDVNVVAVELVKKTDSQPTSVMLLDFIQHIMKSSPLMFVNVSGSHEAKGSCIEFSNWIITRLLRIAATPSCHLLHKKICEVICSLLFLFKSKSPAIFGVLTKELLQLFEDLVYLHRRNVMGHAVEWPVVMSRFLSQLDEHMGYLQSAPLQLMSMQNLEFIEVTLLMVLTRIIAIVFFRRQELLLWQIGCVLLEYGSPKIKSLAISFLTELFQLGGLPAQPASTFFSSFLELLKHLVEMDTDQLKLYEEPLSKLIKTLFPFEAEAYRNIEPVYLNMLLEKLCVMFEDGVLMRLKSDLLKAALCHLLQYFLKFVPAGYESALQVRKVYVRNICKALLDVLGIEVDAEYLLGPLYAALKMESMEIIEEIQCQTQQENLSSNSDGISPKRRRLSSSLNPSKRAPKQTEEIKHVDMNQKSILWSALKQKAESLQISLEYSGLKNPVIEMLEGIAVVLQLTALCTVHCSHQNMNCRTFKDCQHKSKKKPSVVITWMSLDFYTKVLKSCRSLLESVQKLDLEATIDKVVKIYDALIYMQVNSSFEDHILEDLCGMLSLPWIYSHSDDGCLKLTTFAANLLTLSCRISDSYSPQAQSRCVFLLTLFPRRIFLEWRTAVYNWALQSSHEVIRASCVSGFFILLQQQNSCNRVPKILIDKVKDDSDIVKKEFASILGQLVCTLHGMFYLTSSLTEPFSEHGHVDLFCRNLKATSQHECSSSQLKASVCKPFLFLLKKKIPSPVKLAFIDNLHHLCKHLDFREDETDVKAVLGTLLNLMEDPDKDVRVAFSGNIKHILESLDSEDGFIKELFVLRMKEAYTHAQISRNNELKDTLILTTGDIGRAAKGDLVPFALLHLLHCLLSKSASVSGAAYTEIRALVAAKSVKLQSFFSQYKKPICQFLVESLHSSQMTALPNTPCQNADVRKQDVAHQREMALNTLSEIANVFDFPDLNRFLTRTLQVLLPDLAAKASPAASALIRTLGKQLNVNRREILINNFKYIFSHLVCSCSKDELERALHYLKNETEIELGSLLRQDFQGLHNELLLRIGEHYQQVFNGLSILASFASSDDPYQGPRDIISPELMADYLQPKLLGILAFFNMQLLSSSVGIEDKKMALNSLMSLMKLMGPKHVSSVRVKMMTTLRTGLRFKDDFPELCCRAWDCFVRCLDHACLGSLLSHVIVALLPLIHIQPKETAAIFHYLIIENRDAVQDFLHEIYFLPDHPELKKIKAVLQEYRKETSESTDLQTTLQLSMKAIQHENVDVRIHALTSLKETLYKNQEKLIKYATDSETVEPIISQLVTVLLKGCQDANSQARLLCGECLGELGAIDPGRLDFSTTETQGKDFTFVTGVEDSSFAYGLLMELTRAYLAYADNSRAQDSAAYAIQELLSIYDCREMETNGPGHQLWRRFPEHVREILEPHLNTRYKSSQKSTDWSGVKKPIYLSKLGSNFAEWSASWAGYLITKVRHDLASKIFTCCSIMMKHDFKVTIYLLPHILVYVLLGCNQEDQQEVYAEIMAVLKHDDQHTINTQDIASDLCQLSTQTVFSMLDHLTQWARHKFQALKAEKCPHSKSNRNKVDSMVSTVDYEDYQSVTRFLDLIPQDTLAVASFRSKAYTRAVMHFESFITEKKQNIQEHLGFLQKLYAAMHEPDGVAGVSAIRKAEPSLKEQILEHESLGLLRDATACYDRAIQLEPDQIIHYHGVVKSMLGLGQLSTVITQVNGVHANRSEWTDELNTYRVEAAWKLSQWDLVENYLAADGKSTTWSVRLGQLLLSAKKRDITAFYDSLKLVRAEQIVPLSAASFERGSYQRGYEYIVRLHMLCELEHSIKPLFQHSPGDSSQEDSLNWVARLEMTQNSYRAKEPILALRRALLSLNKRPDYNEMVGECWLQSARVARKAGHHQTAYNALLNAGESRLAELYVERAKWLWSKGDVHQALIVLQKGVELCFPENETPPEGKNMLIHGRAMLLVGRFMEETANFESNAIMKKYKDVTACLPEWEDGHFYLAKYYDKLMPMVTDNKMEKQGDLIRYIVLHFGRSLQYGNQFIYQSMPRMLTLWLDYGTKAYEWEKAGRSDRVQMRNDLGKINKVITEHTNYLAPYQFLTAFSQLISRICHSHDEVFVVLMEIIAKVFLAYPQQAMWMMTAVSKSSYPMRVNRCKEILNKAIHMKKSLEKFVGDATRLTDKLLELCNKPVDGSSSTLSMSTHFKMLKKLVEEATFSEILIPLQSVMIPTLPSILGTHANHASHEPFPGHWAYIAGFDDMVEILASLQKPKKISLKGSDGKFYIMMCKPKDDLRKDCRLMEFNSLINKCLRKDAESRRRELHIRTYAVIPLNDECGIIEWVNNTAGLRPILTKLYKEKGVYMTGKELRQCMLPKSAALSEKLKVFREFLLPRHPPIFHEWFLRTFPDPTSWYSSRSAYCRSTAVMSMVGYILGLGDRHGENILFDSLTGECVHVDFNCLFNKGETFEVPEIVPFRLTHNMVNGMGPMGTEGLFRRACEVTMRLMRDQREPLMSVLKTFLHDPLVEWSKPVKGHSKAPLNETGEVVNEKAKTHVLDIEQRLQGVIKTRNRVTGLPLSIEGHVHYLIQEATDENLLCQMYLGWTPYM
# T1 sequence (Q8WXE1 whole entry partner): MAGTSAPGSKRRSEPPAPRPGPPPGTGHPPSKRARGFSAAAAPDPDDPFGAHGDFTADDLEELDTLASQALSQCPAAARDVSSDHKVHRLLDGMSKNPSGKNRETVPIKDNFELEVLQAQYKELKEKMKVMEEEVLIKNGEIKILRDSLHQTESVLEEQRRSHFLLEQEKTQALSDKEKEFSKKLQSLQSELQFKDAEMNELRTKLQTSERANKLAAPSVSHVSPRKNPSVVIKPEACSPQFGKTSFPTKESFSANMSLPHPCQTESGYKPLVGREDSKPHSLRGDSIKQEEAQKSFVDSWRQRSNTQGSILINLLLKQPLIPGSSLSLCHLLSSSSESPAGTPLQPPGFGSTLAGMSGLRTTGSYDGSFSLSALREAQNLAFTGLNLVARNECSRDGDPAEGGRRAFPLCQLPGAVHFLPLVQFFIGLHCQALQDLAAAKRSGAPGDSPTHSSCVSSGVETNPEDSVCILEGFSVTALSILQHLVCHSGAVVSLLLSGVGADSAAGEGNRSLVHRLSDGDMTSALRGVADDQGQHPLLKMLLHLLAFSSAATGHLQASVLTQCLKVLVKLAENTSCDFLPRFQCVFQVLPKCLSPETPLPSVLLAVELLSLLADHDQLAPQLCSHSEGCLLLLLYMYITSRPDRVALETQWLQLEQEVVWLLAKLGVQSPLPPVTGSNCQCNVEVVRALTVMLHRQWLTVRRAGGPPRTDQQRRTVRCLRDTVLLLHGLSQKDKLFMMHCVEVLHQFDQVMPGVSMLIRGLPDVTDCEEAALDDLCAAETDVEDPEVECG
IC50 (LoVo cells),IC50 (ATR enzyme),Maximum inhibition (%) of ATR enzyme (ATR enzyme),Vd/F [1],AUC [1],CL/F [1],half-life [1],Cmax [1],MRT [1],Compound,Maximum inhibition (%) of LoVo cell proliferation (LoVo cells)
316 nM,73 nM,97%,,,,,,,"C[C@@H]1COCCN1c1cc(C(C)(C)O)c2c(n1)c(-c1cc[nH]n1)nn2C [Comparative Example 1, (R)-2-(1-methyl-5-(3-methylmorpholinyl)-3-(1H-pyrazol-3-yl)-1H-pyrazolo[4,3-b]pyridin-7-yl)propan-2-ol, reference compound]",92%
43 nM,,,,,,,,,"C[C@@H]1COCCN1c1cc(C(C)(C)C#N)c2c(n1)c(-c1cc[nH]n1)nn2C [Example 1, (R)-2-methyl-2-(1-methyl-5-(3-methylmorpholinyl)-3-(1H-pyrazol-3-yl)-1H-pyrazolo[4,3-b]pyridin-7-yl)propanenitrile]",
75 nM,9 nM,100%,7.8 ± 6.13 L/kg,1590 ± 1390 ng·h/mL,51.7 ± 49.5 mL/min/kg,2.57 ± 1.39 h,309 ± 219 ng/mL,3.99 ± 2.26 h,"C[C@@H]1COCCN1c1cc(C2(C#N)CC2)c2c(n1)c(-c1cc[nH]n1)nn2C [Example 2, (R)-1-(1-methyl-5-(3-methylmorpholinyl)-3-(1H-pyrazol-3-yl)-1H-pyrazolo[4,3-b]pyridin-7-yl)cyclopropanenitrile]",90%
100 nM,8 nM,100%,,,,,,,"CCn1nc(-c2cc[nH]n2)c2nc(N3CCOC[C@H]3C)cc(C3(C#N)CC3)c21 [Example 5, (R)-1-(1-ethyl-5-(3-methylmorpholinyl)-3-(1H-pyrazol-3-yl)-1H-pyrazolo[4,3-b]pyridin-7-yl) cyclopropanenitrile]",93%

# Continued, molecule first:
Compound,IC50 (LoVo cells),IC50 (ATR enzyme),Maximum inhibition (%) of ATR enzyme (ATR enzyme),Vd/F [1],AUC [1],CL/F [1],half-life [1],Cmax [1],MRT [1],Maximum inhibition (%) of LoVo cell proliferation (LoVo cells)
"C[C@@H]1COCCN1c1cc(-c2ccnn2C)c2c(n1)c(-c1cc[nH]n1)nn2C [Example 3, (R)-3-methyl-4-(1-methyl-7-(1-methyl-1H-pyrazol-5-yl)-3-(1H-pyrazol-3-yl)-1H-pyrazolo[4,3-b]pyridin-5-yl) morpholine]",124 nM,15 nM,100%,2.44 ± 0.448 L/kg,2710 ± 807 ng·h/mL,13.1 ± 3.7 mL/min/kg,2.23 ± 0.53 h,674 ± 86.7 ng/mL,3.26 ± 0.67 h,87%
"CCn1nc(-c2cc[nH]n2)c2nc(N3CCOC[C@H]3C)cc(C(C)(C)C#N)c21 [Example 4, (R)-2-(1-ethyl-5-(3-methylmorpholinyl)-3-(1H-pyrazol-3-yl)-1H-pyrazolo[4,3-b]pyridin-7-yl)-2-methylpropanenitrile]",64 nM,6 nM,100%,,,,,,,89%
"C[C@@H]1COCCN1c1cc(C(C)(C)C#N)c2[nH]nc(-c3cc[nH]n3)c2n1 [Example 6, (R)-2-methyl-2-(5-(3-methylmorpholinyl)-3-(1H-pyrazol-3-yl)-1H-pyrazolo[4,3-b]pyridin-7-yl)propanenitrile]",55 nM,3 nM,100%,,,,,,,95%
